Assay results published in ChEMBL document CHEMBL3046943, “Synthesis, anti-inflammatory and antimicrobial evaluation of novel N1-(quinolin-4yl)ethane-1,2-diamine phenyl urea derivatives” (2013).
≈ marks a conversion by molar mass, not a printed value. Calls of active or inactive are those of the source. No cut-off for these calls is given here.

What was measured:
Aspergillus flavus [1] = test: Antifungal activity against Aspergillus flavus MTCC 277 up to 200 ug/ml after 2 to 3 days by agar well diffusion method; format: functional, organism-based
Fusarium solani [2] = test: Antifungal activity against Fusarium solani MTCC 350 up to 200 ug/ml after 2 to 3 days by agar well diffusion method; format: functional, organism-based
Aspergillus niger [3] = test: Antifungal activity against Aspergillus niger MTCC 281 up to 200 ug/ml after 2 to 3 days by agar well diffusion method; format: functional, organism-based
Candida albicans [4] = test: Antifungal activity against Candida albicans MTCC 227 after 2 to 3 days by agar well diffusion method; format: functional
Salmonella typhimurium [5] = test: Antibacterial activity against Salmonella enterica subsp. enterica serovar Typhimurium MTCC 98 up to 200 ug/ml after 24 hr by agar well diffusion method; format: functional, organism-based
Escherichia coli [6] = test: Antibacterial activity against Escherichia coli MTCC 443 up to 200 ug/ml after 24 hr by agar well diffusion method; format: functional, organism-based
Bacillus subtilis [7] = test: Antibacterial activity against Bacillus subtilis MTCC 441 up to 200 ug/ml after 24 hr by agar well diffusion method; format: functional, organism-based
Staphylococcus aureus [8] = test: Antibacterial activity against Staphylococcus aureus MTCC 96 after 24 hr by agar well diffusion method; format: functional; details: MTCC 96, 24 h
THP-1 [9] = test: Anti-inflammatory activity in Homo sapiens (human) THP1 cells assessed as inhibition of LPS-induced IL6 production at 10 uM incubated for 30 min prior to LPS-challenge measured after 24 hr by ELISA relative to control; format: functional
THP-1 [10] = test: Anti-inflammatory activity in Homo sapiens (human) THP1 cells assessed as inhibition of LPS-induced TNFalpha production at 10 uM incubated for 30 min prior to LPS-challenge measured after 24 hr by ELISA relative to control; format: functional
THP-1 [11] = test: Anti-inflammatory activity in Homo sapiens (human) THP1 cells assessed as inhibition of LPS-induced IL6 production at 1 uM incubated for 30 min prior to LPS-challenge measured after 24 hr by ELISA relative to control; format: functional
THP-1 [12] = test: Anti-inflammatory activity in Homo sapiens (human) THP1 cells assessed as inhibition of LPS-induced TNFalpha production at 1 uM incubated for 30 min prior to LPS-challenge measured after 24 hr by ELISA relative to control; format: functional
Aspergillus flavus [13] = test: Antifungal activity against Aspergillus flavus MTCC 277 after 2 to 3 days by agar well diffusion method; format: functional
Fusarium solani [14] = test: Antifungal activity against Fusarium solani MTCC 350 after 2 to 3 days by agar well diffusion method; format: functional
Aspergillus niger [15] = test: Antifungal activity against Aspergillus niger MTCC 281 after 2 to 3 days by agar well diffusion method; format: functional
Salmonella typhimurium [16] = test: Antibacterial activity against Salmonella enterica subsp. enterica serovar Typhimurium MTCC 98 after 24 hr by agar well diffusion method; format: functional; details: MTCC 98, 24 h
Escherichia coli [17] = test: Antibacterial activity against Escherichia coli MTCC 443 after 24 hr by agar well diffusion method; format: functional; details: MTCC 443, 24 h
Bacillus subtilis [18] = test: Antibacterial activity against Bacillus subtilis MTCC 441 after 24 hr by agar well diffusion method; format: functional; details: MTCC 441, 24 h
Staphylococcus aureus [19] = test: Antibacterial activity against Staphylococcus aureus MTCC 96 up to 200 ug/ml after 24 hr by agar well diffusion method; format: functional, organism-based
Candida albicans [20] = test: Antifungal activity against Candida albicans MTCC 227 up to 200 ug/ml after 2 to 3 days by agar well diffusion method; format: functional, organism-based
Aspergillus flavus [21] = test: Ratio of miconazole MIC to compound MIC for Aspergillus flavus MTCC 277; format: functional
Candida albicans [22] = test: Ratio of miconazole MIC to compound MIC for Candida albicans MTCC 227; format: functional

O=C(NCCNc1ccnc2c(F)cc(F)cc12)Nc1ccc(OC(F)(F)F)cc1
Activity (Aspergillus flavus [1]): inactive
Activity (Fusarium solani [2]): inactive
Activity (Aspergillus niger [3]): inactive
MIC (Candida albicans [4]): 90 µg/mL (≈ 211 µM)
Activity (Salmonella typhimurium [5]): inactive
Activity (Escherichia coli [6]): inactive
Activity (Bacillus subtilis [7]): inactive
MIC (Staphylococcus aureus [8]): 90 µg/mL (≈ 211 µM)
inhibition at 10 µM (THP-1 [9]): 28%
inhibition at 10 µM (THP-1 [10]): 16%

C[C@@H]1C[C@H]2[C@@H]3CCC4=CC(=O)C=C[C@]4(C)[C@@]3(F)[C@@H](O)C[C@]2(C)[C@@]1(O)C(=O)CO [DEXAMETHASONE]
inhibition at 1 µM (THP-1 [11]): 86%
inhibition at 1 µM (THP-1 [12]): 72%

Cc1ccc(NC(=O)NCCNc2ccnc3c(F)cc(F)cc23)cc1C
MIC (Aspergillus flavus [13]): 30 µg/mL (≈ 81 µM)
MIC (Fusarium solani [14]): 20 µg/mL (≈ 54 µM)
MIC (Aspergillus niger [15]): 35 µg/mL (≈ 94.5 µM)
MIC (Candida albicans [4]): 25 µg/mL (≈ 67.5 µM)
MIC (Salmonella typhimurium [16]): 35 µg/mL (≈ 94.5 µM)
MIC (Escherichia coli [17]): 40 µg/mL (≈ 108 µM)
MIC (Bacillus subtilis [18]): 30 µg/mL (≈ 81 µM)
MIC (Staphylococcus aureus [8]): 40 µg/mL (≈ 108 µM)
inhibition at 10 µM (THP-1 [9]): 16%
inhibition at 10 µM (THP-1 [10]): 11%

O=C(NCCNc1ccnc2c(F)cc(F)cc12)Nc1cccc(Cl)c1F
MIC (Aspergillus flavus [13]): 30 µg/mL (≈ 76 µM)
MIC (Fusarium solani [14]): 60 µg/mL (≈ 152 µM)
MIC (Aspergillus niger [15]): 75 µg/mL (≈ 190 µM)
MIC (Candida albicans [4]): 40 µg/mL (≈ 101 µM)
Activity (Salmonella typhimurium [5]): inactive
MIC (Bacillus subtilis [18]): 90 µg/mL (≈ 228 µM)
MIC (Staphylococcus aureus [8]): 90 µg/mL (≈ 228 µM)
inhibition at 10 µM (THP-1 [9]): 27%
inhibition at 10 µM (THP-1 [10]): 16%

CC(C)c1ccc(NC(=O)NCCNc2ccnc3c(F)cc(F)cc23)cc1
MIC (Aspergillus flavus [13]): 40 µg/mL (≈ 104 µM)
MIC (Fusarium solani [14]): 50 µg/mL (≈ 130 µM)
MIC (Aspergillus niger [15]): 35 µg/mL (≈ 91 µM)
MIC (Candida albicans [4]): 45 µg/mL (≈ 117 µM)
MIC (Salmonella typhimurium [16]): 30 µg/mL (≈ 78 µM)
MIC (Escherichia coli [17]): 40 µg/mL (≈ 104 µM)
MIC (Bacillus subtilis [18]): 35 µg/mL (≈ 91 µM)
MIC (Staphylococcus aureus [8]): 40 µg/mL (≈ 104 µM)
inhibition at 10 µM (THP-1 [9]): 82%
inhibition at 10 µM (THP-1 [10]): 68%

O=C(NCCNc1ccnc2c(F)cc(F)cc12)Nc1cc(C(F)(F)F)ccc1Cl
MIC (Aspergillus flavus [13]): 20 µg/mL (≈ 45 µM)
MIC (Fusarium solani [14]): 20 µg/mL (≈ 45 µM)
MIC (Aspergillus niger [15]): 15 µg/mL (≈ 33.7 µM)
MIC (Candida albicans [4]): 20 µg/mL (≈ 45 µM)
MIC (Salmonella typhimurium [16]): 15 µg/mL (≈ 33.7 µM)
MIC (Escherichia coli [17]): 20 µg/mL (≈ 45 µM)
MIC (Bacillus subtilis [18]): 25 µg/mL (≈ 56.2 µM)
MIC (Staphylococcus aureus [8]): 25 µg/mL (≈ 56.2 µM)
inhibition at 10 µM (THP-1 [9]): 80%
inhibition at 10 µM (THP-1 [10]): 61%

O=C(O)c1cn(C2CC2)c2cc(N3CCNCC3)c(F)cc2c1=O [CIPROFLOXACIN]
MIC (Salmonella typhimurium [16]): 20 µg/mL (≈ 60.4 µM)
MIC (Escherichia coli [17]): 15 µg/mL (≈ 45.3 µM)
MIC (Bacillus subtilis [18]): 15 µg/mL (≈ 45.3 µM)
MIC (Staphylococcus aureus [8]): 20 µg/mL (≈ 60.4 µM)

O=c1cc[nH]c2c(F)cc(F)cc12 [6,8-DIFLUOROQUINOLIN-4(1H)-ONE]
Activity (Aspergillus flavus [1]): inactive
Activity (Fusarium solani [2]): inactive
Activity (Aspergillus niger [3]): inactive
MIC (Candida albicans [4]): 90 µg/mL (≈ 497 µM)
Activity (Salmonella typhimurium [5]): inactive
Activity (Escherichia coli [6]): inactive
Activity (Bacillus subtilis [7]): inactive
Activity (Staphylococcus aureus [19]): inactive
inhibition at 10 µM (THP-1 [9]): 0%
inhibition at 10 µM (THP-1 [10]): 0%

Clc1ccc(COC(Cn2ccnc2)c2ccc(Cl)cc2Cl)c(Cl)c1 (stereo unspecified) [MICONAZOLE]
MIC (Aspergillus flavus [13]): 20 µg/mL (≈ 48.1 µM)
MIC (Fusarium solani [14]): 15 µg/mL (≈ 36 µM)
MIC (Aspergillus niger [15]): 15 µg/mL (≈ 36 µM)
MIC (Candida albicans [4]): 20 µg/mL (≈ 48.1 µM)

O=C(NCCNc1ccnc2c(F)cc(F)cc12)Nc1ccccc1OC(F)(F)F
MIC (Aspergillus flavus [13]): 80 µg/mL (≈ 188 µM)
MIC (Fusarium solani [14]): 90 µg/mL (≈ 211 µM)
MIC (Aspergillus niger [15]): 80 µg/mL (≈ 188 µM)
MIC (Candida albicans [4]): 80 µg/mL (≈ 188 µM)
Activity (Salmonella typhimurium [5]): inactive
Activity (Escherichia coli [6]): inactive
Activity (Bacillus subtilis [7]): inactive
Activity (Staphylococcus aureus [19]): inactive
inhibition at 10 µM (THP-1 [9]): 96%
inhibition at 10 µM (THP-1 [10]): 78%

Cc1ccc(F)cc1NC(=O)NCCNc1ccnc2c(F)cc(F)cc12
MIC (Aspergillus flavus [13]): 20 µg/mL (≈ 53.4 µM)
MIC (Fusarium solani [14]): 20 µg/mL (≈ 53.4 µM)
MIC (Aspergillus niger [15]): 30 µg/mL (≈ 80.1 µM)
MIC (Candida albicans [4]): 25 µg/mL (≈ 66.8 µM)
MIC (Salmonella typhimurium [16]): 30 µg/mL (≈ 80.1 µM)
MIC (Escherichia coli [17]): 25 µg/mL (≈ 66.8 µM)
MIC (Bacillus subtilis [18]): 20 µg/mL (≈ 53.4 µM)
MIC (Staphylococcus aureus [8]): 25 µg/mL (≈ 66.8 µM)
inhibition at 10 µM (THP-1 [9]): 40%
inhibition at 10 µM (THP-1 [10]): 28%

NCCNc1ccnc2c(F)cc(F)cc12
Activity (Aspergillus flavus [1]): inactive
Activity (Fusarium solani [2]): inactive
Activity (Aspergillus niger [3]): inactive
Activity (Candida albicans [20]): inactive
Activity (Salmonella typhimurium [5]): inactive
Activity (Escherichia coli [6]): inactive
Activity (Bacillus subtilis [7]): inactive
Activity (Staphylococcus aureus [19]): inactive
inhibition at 10 µM (THP-1 [9]): 0%
inhibition at 10 µM (THP-1 [10]): 0%

O=C(NCCNc1ccnc2c(F)cc(F)cc12)Nc1ccc(C(F)(F)F)cc1
Activity (Aspergillus niger [3]): inactive
MIC (Aspergillus flavus [13]): 90 µg/mL (≈ 219 µM)
MIC (Fusarium solani [14]): 90 µg/mL (≈ 219 µM)
MIC (Candida albicans [4]): 90 µg/mL (≈ 219 µM)
MIC (Salmonella typhimurium [16]): 90 µg/mL (≈ 219 µM)
MIC (Escherichia coli [17]): 90 µg/mL (≈ 219 µM)
MIC (Bacillus subtilis [18]): 90 µg/mL (≈ 219 µM)
MIC (Staphylococcus aureus [8]): 75 µg/mL (≈ 183 µM)
inhibition at 10 µM (THP-1 [9]): 35%
inhibition at 10 µM (THP-1 [10]): 23%

O=C(NCCNc1ccnc2c(F)cc(F)cc12)Nc1ccccc1F
Ratio (Aspergillus flavus [21]): 1.3
Ratio (Candida albicans [22]): 1.3
MIC (Aspergillus flavus [13]): 15 µg/mL (≈ 41.6 µM)
MIC (Fusarium solani [14]): 20 µg/mL (≈ 55.5 µM)
MIC (Aspergillus niger [15]): 20 µg/mL (≈ 55.5 µM)
MIC (Candida albicans [4]): 15 µg/mL (≈ 41.6 µM)
MIC (Salmonella typhimurium [16]): 20 µg/mL (≈ 55.5 µM)
MIC (Escherichia coli [17]): 15 µg/mL (≈ 41.6 µM)
MIC (Bacillus subtilis [18]): 20 µg/mL (≈ 55.5 µM)
MIC (Staphylococcus aureus [8]): 20 µg/mL (≈ 55.5 µM)
inhibition at 10 µM (THP-1 [9]): 18%
inhibition at 10 µM (THP-1 [10]): 11%

Fc1cc(F)c2nccc(Cl)c2c1 [4-CHLORO-6,8-DIFLUOROQUINOLINE]
Activity (Fusarium solani [2]): inactive
MIC (Aspergillus flavus [13]): 90 µg/mL (≈ 451 µM)
MIC (Aspergillus niger [15]): 90 µg/mL (≈ 451 µM)
MIC (Candida albicans [4]): 90 µg/mL (≈ 451 µM)
Activity (Salmonella typhimurium [5]): inactive
Activity (Escherichia coli [6]): inactive
Activity (Bacillus subtilis [7]): inactive
Activity (Staphylococcus aureus [19]): inactive
inhibition at 10 µM (THP-1 [9]): 0%
inhibition at 10 µM (THP-1 [10]): 0%

O=C(NCCNc1ccnc2c(F)cc(F)cc12)Nc1ccccc1C(F)(F)F
MIC (Aspergillus flavus [13]): 25 µg/mL (≈ 60.9 µM)
MIC (Fusarium solani [14]): 20 µg/mL (≈ 48.7 µM)
MIC (Aspergillus niger [15]): 10 µg/mL (≈ 24.4 µM)
MIC (Candida albicans [4]): 15 µg/mL (≈ 36.6 µM)
MIC (Salmonella typhimurium [16]): 15 µg/mL (≈ 36.6 µM)
MIC (Escherichia coli [17]): 10 µg/mL (≈ 24.4 µM)
MIC (Bacillus subtilis [18]): 10 µg/mL (≈ 24.4 µM)
MIC (Staphylococcus aureus [8]): 15 µg/mL (≈ 36.6 µM)
inhibition at 10 µM (THP-1 [9]): 90%
inhibition at 10 µM (THP-1 [10]): 71%
